Source: patent US11191760B2, “Compositions and methods for treating Helicobacter pylori infection” (priority 2016, dated 2021)

How the values were obtained:
Type in all cases: cell-based
[1] = test system: AGS cells; experiment: VacA-disrupted autophagy in AGS cells (LC3-II immunoblot, LC3 puncta); settings: for VacA-disrupted autophagy (LC3-II levels): FIG. 13
Protocol: AGS cells incubated with VacA+ or VacA− CCMS for 3 to 4 hrs were then treated with 20 μM ML-SA1 or DMSO (vehicle) for an additional 3 hrs. Cell lysates were prepared and probed for the autophagy marker LC3-II and actin (loading control) (4A, left). Densitometry analysis (LC3-II/actin ratio) of 6 experiments is included on the right. […] Cells treated as indicated above were fixed and stained for LC3-11 (marker of autophagosomes) and cell nuclei (using DAPI). […] One representative image of 7 experiments is shown.
To validate the results obtained with ML-SA1 and confirm that VacA impairs TRPML1 activity, a new recently described TRPML1 agonist, MK6-83, was also evaluated in its ability to restore VacA-disrupted autophagy. To this end, AGS cells incubated with VacA+ or VacA− CCMS for 4 hours were treated with 20 μM ML-SA1, 10 μM MK6-83 or DMSO (vehicle) for additional 3 hour period. Cell lysates were prepared and assessed for LC3-II and actin as loading control. […] This example provides evidence that various TRPML1 agonists of different structures work in the same way by targeting TRPML1 to restore VacA-disrupted autophagy.

[2] = test system: human gastric organoids; experiment: VacA-induced large vacuoles and disrupted autophagy in human gastric organoids; settings: 16 h VacA+ culture supernatant
Protocol: (11A) 3-dimensional human gastric organoids were treated 16 h with VacA− or VacA+ culture supernatant, then 5 h with vehicle (DMSO) or ML-SA1. One representative Western blot is shown and the corresponding quantification of the rescue in LC3-II by treatment with ML-SA1 from organoids derived from 5 different patients. (B) Representative confocal images taken from human gastric organoid monolayers treated for 16 h with VacA− or VacA+ culture supernatant, then 3 h with vehicle (DMSO) or ML-SA1. VacA-induced large vacuoles were visualized by Lamp1, autophagy by LC3 and nuclei by DAPI. Note large Lamp1 positive rings and LC3 puncta (arrows) in VacA+ DMSO that were rescued in VacA+ ML-SA1.
Organoids are 3-dimensional primary cell cultures that recapitulate the normal stomach physiology. These cultures are derived from stem cells located in the gastric gland that differentiate into complex structures containing the different cell types found in the stomach epithelium. To ensure findings from the cancerous gastric cell line (AGS) held true in a physiological model, organoids were derived from multiple different patients and treated with VacA.

[3] = test system: AGS cells; experiment: Vacuolation and cathepsin D missorting in AGS cells infected with wild-type (VacA+) H. pylori; settings: treated for 4 hrs
Protocol: A merged image is shown on the left, and the individual stainings corresponding to a higher magnification of the selected areas are included on the right. In the AGS cells infected with VacA− H. pylori mutant, the cathepsin D-filled lysosomes efficiently killed the intracellular bacteria (visualized by DAPI).
To this end, AGS cells infected with wild-type (VacA^+) or VacA^− mutant H. pylori were incubated with the cell-impermeant antibiotic gentamicin to kill extracellular bacteria. Intracellular bacteria were then retrieved and quantified. […] The big vacuoles, depleted of cathepsin D and filled with bacteria observed in the VacA^+ H. pylori infected cells (FIG. 9, inset), were reduced in size and filled with the hydrolytic enzyme after ML-SA1 treatment (FIG. 9, inset). Thus, the reduction in intracellular survival was a consequence of the destruction of the […] H. pylori protective niche (FIG. 8,9).

[4] = test system: AGS cells; experiment: VacA-induced missorting of cathepsin D in AGS cells (Lamp1/cathepsin D staining); settings: 20 μM for 4 hrs after overnight VacA+ CCMS
Protocol: VacA− DMSO treated (control) cells display lysosomes filled with cathepsin D (same puncta obtained by Lamp1 and cathepsin D staining in the top 2 panels) whereas the big vacuoles generated by VacA+ incubation lack cathepsin D (middle panels). […] A higher magnification of a merged Lamp1/cathepsin D image is included on the right. One representative image of 6 experiments is shown.
(§1) ML-SA1 administration to VacA^+ treated AGS cells recovered the delivery of cathepsin D to intracellular vacuoles (FIG. 5) and increased cathepsin D cellular levels as detected by immunoblotting (FIG. 6). Importantly, ML-SA1-treated cells also regained the ability to degrade the chromogenic substrate, DQ-BSA (FIG. 7). Altogether, these findings indicate that activation of the TRPML1 channel reverts formation of the VacA-induced non-degradative vacuole.

[5] = test system: AGS cells; experiment: Lysosomal degradative function in VacA+ CCMS treated AGS cells (red DQ-BSA); settings: 20 μM for 3 hrs after overnight VacA+ CCMS, then red DQ-BSA 4 hrs
Protocol: AGS cells were incubated overnight with VacA− or VacA+ CCMS and treated with 20 μM ML-SA1 or DMSO (vehicle) for an additional 3 hrs period prior to being loaded with red DQ-BSA for an additional 4 hrs. Cells were then fixed and stained with DAPI. Red DQ-BSA is a chromogenic substrate taken up by the cells by endocytosis. The dye generates a fluorescence signal once hydrolyzed in lysosomes. VacA− treated control cells efficiently degrade the substrate resulting in the detection of the fluorescence signal (lysosomal-like white puncta in 7A) whereas in VacA+ treated cells minimal to none fluorescence is detected (7B). […] The experiment was repeated 4 times with similar results.
as §1

[6] = test system: AGS cells; experiment: VacA-induced vacuolation in AGS cells (Lamp1 staining); settings: 20 μM for 3 hrs after 3 to 4 hrs VacA+ CCMS
Protocol: AGS cells were incubated with CCMS from wild-type (VacA+) or mutant (VacA−) 60190 H. pylori for 3 to 4 hrs to induce vacuole formation. Cells were then treated with 20 μM of the TRPML1 agonist ML-SA1 or DMSO (vehicle) for an additional 3 hrs period prior to fixation and staining for Lamp1 and cell nuclei. […] Lamp1 staining in these TRPML1 treated cells was indistinguishable from VacA− CCMS control AGS cells. The experiment was repeated 8 times with similar results. One representative experiment is shown.
ML-SA1-treated VacA^+ AGS cells were indistinguishable from VacA^− control cells, displaying Lamp1 staining that resembled normal lysosome size and distribution.

[7] = test system: AGS cells; experiment: Cathepsin D cellular levels in VacA+ CCMS treated AGS cells (Western blotting); settings: 20 μM for 4 hrs after overnight VacA+ CCMS
Protocol: AGS cells were incubated overnight with VacA− or VacA+ CCMS and treated with 20 μM ML-SA1 or DMSO (vehicle) for an additional 4 hrs period prior to lysate preparation. Cathepsin D and actin (loading control) levels were analyzed by Western blotting. […] One representative blot of 5 is shown (top panel). Densitometry analysis of cathepsin D levels (cathepsin D/actin ratio), normalized to the VacA− treated control is shown (bottom panel).
as §1

[8] = test system: wild-type (VacA+) H. pylori; experiment: Intracellular bacteria survival in infected AGS cells (gentamicin, CFU)

Row | SMILES | VacA-disrupted autophagy (LC3-II levels) ([1]; 10 μM for 3 hour after 4 hours VacA+ CCMS, AGS cells) | VacA-induced large intracellular vacuoles (Lamp1) ([2]; then 3 h compound, human gastric organoid monolayers) | disrupted autophagy (LC3) ([2]; then 5 h (3-dimensional organoids, LC3-II blot) or 3 h (monolayers) compound) | size of the vacuoles in VacA+ H. pylori infected cells ([3]; Lamp1 staining) | cathepsin D in the vacuoles of VacA+ H. pylori infected cells ([3]; cathepsin D staining) | cathepsin D sorting to lysosomes [4] | VacA-disrupted autophagy (LC3-II levels) ([1]; 20 μM for 3 hour after 4 hours VacA+ CCMS, AGS cells) | autophagy marker LC3-II (LC3-II/actin ratio) ([1]; 20 μM for 3 hrs after 3 to 4 hrs VacA+ CCMS, AGS cell lysates, FIG. 4A) | accumulation of dysfunctional autophagosomes (LC3 puncta) ([1]; 20 μM for 3 hrs after VacA+ CCMS, AGS cells, staining, FIG. 4B) | lysosomal degradative function (degradation of DQ-BSA) [5] | VacA-induced vacuolation (Lamp1 staining) [6] | cathepsin D cellular levels (cathepsin D/actin ratio) [7] | intracellular survival of wild-type (VacA+) H. pylori (CFU) ([8]; 8 hrs infection, 20 μM for the last 3 hrs) | intracellular survival of wild-type (VacA+) H. pylori (CFU) ([8]; 24 hrs infection, 20 μM for the last 4 hrs)
1 | Cc1ccc(S(=O)(=O)Nc2ccccc2N2CCCCC2)s1 [MK6-83] | restored the VacA-disrupted autophagy |  |  |  |  |  |  |  |  |  |  |  |  | 
2 | CC1CC(C)(C)N(C(=O)CN2C(=O)c3ccccc3C2=O)c2ccccc21 (centres unmarked) [ML-SA1] |  | large vacuoles were reverted | autophagy was restored | causes a reduction in the size of the vacuoles | now contain the lysosomal hydrolase cathepsin D | restores cathepsin D sorting to lysosomes | restored the VacA-disrupted autophagy | autophagy was restored | reversed the accumulation of dysfunctional autophagosomes | restores the degradative capacity | reversed the vacuolation | restored cathepsin D levels | reverted the enhanced intracellular survival | reverted the enhanced intracellular survival
